Results on 39 compounds are retold here after the Deep4Chem optical property database.

A short description of this series: solvent given as SMILES.

Where the note is “in Cc1ccccc1”, `O=C(c1ccccc1)c1cc2ccc1CCc1ccc(cc1-c1ccc(N(c3ccccc3)c3ccccc3)cc1)CC2` registered an absorption maximum of 311 nm.

With `CN(C)c1ccc(/C=C/c2cc(/C=C/c3ccc(N(C)C)cc3)nc(/C=C/c3ccc(N(C)C)cc3)n2)cc1`, the absorption maximum (in ClCCl) was 402 nm.

Regarding `N#Cc1c(N2CCCCC2)cc(-c2ccc3ccccc3c2)c2c1-c1ccccc1C2`, for the setting “in C1CCOC1”, the absorption maximum is on record as 362 nm.

`CCCCCCCCN1C(=O)c2ccc3c4c(-c5ccc(-n6c7ccccc7c7ccccc76)cc5)cc5c6c(ccc(c7c(-c8ccc(-n9c%10ccccc%10c%10ccccc%109)cc8)cc(c2c37)C1=O)c64)C(=O)N(CCCCCCCC)C5=O` displayed an absorption maximum (in ClC(Cl)Cl) of 561 nm.

Consider `CCN(CC)c1ccc2cc(/C(Cl)=C/C=C/C(=C(C#N)C#N)c3ccc4c(c3)c3ccccc3n4CC)c(=O)oc2c1`, for which the absorption maximum stood at 518 nm (in CC(C)=O); 508 nm (in CCOC(C)=O); 532 nm (in CN(C)C=O); 538 nm (in CS(C)=O); 508 nm (in Cc1ccccc1); 526 nm (in ClCCl).

`COc1cc(/C=C/c2ccccc2)cc(OC)c1`: for the setting “in CC#N”, the absorption maximum was found to be 306 nm.

On to `CC1(C)C(/C=C/C=C/C=C/C=C2/N(S(=O)(=O)[O-])c3ccc(S(=O)(=O)[O-])cc3C2(C)C)=[N+](S(=O)(=O)[O-])c2ccc(S(=O)(=O)[O-])cc21`, for which the absorption maximum (in CO) was determined as 755 nm.

For the compound `COc1c2ccccc2c(OC)c2c(C#C[Si](C(C)C)(C(C)C)C(C)C)c3cc4ccccc4cc3c(C#C[Si](C(C)C)(C(C)C)C(C)C)c12`, the absorption maximum (in ClCCl) turned out to be 686 nm.

`Cn1c(=O)c(/N=N/c2cc(S(=O)(=O)O)ccc2C(=O)O)c(O)c2ccccc21`: the absorption maximum came to 408 nm (in C1CCOC1); 407 nm (in CC(C)=O); 407 nm (in CCOC(C)=O); 406 nm (in CO); 417 nm (in CS(C)=O); 421 nm (in Cc1ccccc1). For the same compound, the absorption maximum (in ClCCl) is recorded as 420 nm and the absorption maximum (in O) is recorded as 421 nm.

`CC1(C)c2ccccc2N(c2ccc(-c3cnc(C#N)nc3)cc2)c2ccccc21` displayed an absorption maximum (in Cc1ccccc1) of 384 nm.

Regarding `CCCCCCCC(=O)Oc1ccc2c3cccc4c(OC(=O)CCCCCCC)ccc(c5cccc1c52)c43`, the absorption maximum was found to be 445 nm (in C1CCOC1); 448 nm (in Cc1ccccc1); 448 nm (in ClC(Cl)(Cl)Cl); 446 nm (in ClC(Cl)Cl); 445 nm (in ClCCl); 449 nm (in c1ccncc1).

For the compound `O=P1(c2ccccc2)C(c2ccc(C3=Cc4ccccc4P3(=O)c3ccccc3)cc2)=Cc2ccccc21` (stereo not given), the absorption maximum (in C1CCOC1) is 387 nm.

`Cc1ccc(N2C(c3ccccc3NS(=O)(=O)c3ccc(C)cc3)=NC(c3ccccc3)C2c2ccccc2)cc1` (stereo not given): the absorption maximum (in Cc1ccccc1) was found to be 300 nm.

For `COc1ccc(-c2nc(-c3cc([N+](=O)[O-])ccc3O)[nH]c2-c2ccc(OC)cc2)cc1`, for the setting “in CO”, the absorption maximum is on record as 260 nm.

As for `CC(C)[Si](C#Cc1ccc2c(C#C[Si](C(C)C)(C(C)C)C(C)C)cc3c4cc(C#C[Si](C(C)C)(C(C)C)C(C)C)ccc4c(C#C[Si](C(C)C)(C(C)C)C(C)C)cc3c2c1)(C(C)C)C(C)C`, where the note is “in ClCCl”, the absorption maximum is 394 nm.

In the case of `CCCCN1/C(=C/C=C/C2=[N+](C)c3ccccc3C2(C)C)C(C)(C)c2cc(OC)ccc21`, under “in CS(C)=O”, the absorption maximum came to 566 nm.

Compound `CCOC(=O)C(Cc1ccc(O[Si]2(Oc3ccc(CC(NC(C)=O)C(=O)OCC)cc3)n3c4c5ccccc5c3/N=C3N=C(/N=c5/c6ccccc6/c(n52)=N/C2=NC(=N\4)/c4ccccc42)c2ccccc2\3)cc1)NC(C)=O` (stereo not given) gave an absorption maximum (in CN(C)C=O) of 681 nm.

As for `COc1ccc(C2=Cc3c4ccccc4cc[n+]3[B-](F)(F)O2)cc1`, the absorption maximum (in ClC(Cl)Cl) came to 410.5 nm.

On to `CCN1c2ccc(/C=N/Nc3ccccn3)cc2Sc2cc(-c3cccc4ccccc34)ccc21`, for which the absorption maximum by setting is: (in C1CCOC1) 378 nm; (in CS(C)=O) 383 nm; (in Cc1ccccc1) 378 nm; (in ClCCl) 379 nm.

Take `c1ccc2c(c1)[nH]c1ncccc12`: the absorption maximum is 338 nm (in CC#N) and 336 nm (in CCCCCC).

For `c1ccc(-c2nc(-c3ccccc3)nc(-c3ccc(-n4c5ccccc5c5cc6c(cc54)c4ccccc4n6-c4ccccc4)cc3)n2)cc1`, the absorption maximum (in Cc1ccccc1) is on record as 403 nm.

Under “in CCO”, `CCN(CC)c1cc2oc3cc(N(CC)CC)c(F)cc3c(=O)c2cc1F` displayed an absorption maximum of 389 nm.

`CCCCCCCCN1c2ccccc2Sc2cc(/C=C/c3ccc(N(c4ccc(/C=C/c5ccc6c(c5)Sc5ccccc5N6CCCCCCCC)cc4)c4ccc(/C=C/c5ccc(/C=C/c6ccc(N(c7ccc(/C=C/c8ccc(N(c9ccccc9)c9ccccc9)cc8)cc7)c7ccc(/C=C/c8ccc(N(c9ccccc9)c9ccccc9)cc8)cc7)cc6)c6nsnc56)cc4)cc3)ccc21` had an absorption maximum (in C1CCOC1) of 534 nm; an absorption maximum (in CCOC(C)=O) of 524 nm; an absorption maximum (in CN(C)C=O) of 528 nm; an absorption maximum (in Cc1ccccc1) of 533 nm; an absorption maximum (in ClC(Cl)Cl) of 534 nm; an absorption maximum (in ClCCl) of 533 nm.

As for `O=[N+]([O-])c1ccccc1O`, the absorption maximum is reported as 338 nm (in CO) and 411 nm (in O).

`COc1ccc(N(c2ccccc2)c2ccc(OC)cc2)cc1` came in with an absorption maximum (in Cc1ccccc1) of 300 nm.

On to `COC1=C/C(=C\C=C2C=CN(Cc3ccc(Br)cc3)C=C2)C=CC1=O`, for which the absorption maximum by setting is: (in CC#N) 617 nm; (in CC(C)=O) 624 nm; (in CC(C)CO) 576 nm; (in CC(C)O) 585 nm; (in CCC#N) 620 nm; (in CCCCCCO) 584 nm. For the same compound, the absorption maximum by setting is: (in CCCCCO) 588 nm; (in CCCCO) 576 nm; (in CCCO) 577 nm; (in CCO) 568 nm; (in CN(C)C=O) 621 nm; (in CN(C)P(=O)(N(C)C)N(C)C) 629 nm. Besides, the absorption maximum is reported as 537 nm (in CO) and 619 nm (in CS(C)=O).

For `CN(C)c1ccc2c(c1)-c1ccccc1C2=O`, the absorption maximum is, setting by setting: (in C1CCCCC1) 400 nm; (in CC#N) 431 nm; (in CCO) 437 nm; (in c1ccccc1) 420 nm.

Consider `COC(=O)C(Cc1ccc2oc(-c3ccc(N(c4ccccc4)c4ccccc4)cc3)nc2c1)NC(=O)OC(C)(C)C` (stereo not given), for which the absorption maximum is, setting by setting: (in C1CCCCC1) 361.7 nm; (in C1CCOC1) 362.85 nm; (in C1COCCO1) 363.1 nm; (in CC1CCCCC1) 361.35 nm; (in CC1COC(=O)O1) 361.45 nm; (in CC#N) 360.5 nm. Moreover, the absorption maximum was found to be 360.45 nm (in CC(C)=O); 365.45 nm (in CC(C)O); 368.35 nm (in CC(O)CO); 359.8 nm (in CCCCCC); 361.55 nm (in CCCCCCCC); 367.75 nm (in CCCCCO). For the same compound, the absorption maximum by setting is: (in CCCCO) 367.1 nm; (in CCO) 366.3 nm; (in CCOC(C)=O) 360.5 nm; (in CN(C)C=O) 363 nm; (in CO) 365.05 nm; (in COCCOC) 362.55 nm. Also, the absorption maximum stood at 364 nm (in CS(C)=O); 369.25 nm (in ClC(Cl)Cl); 366.18 nm (in ClCCl); 368.3 nm (in N#Cc1ccccc1); 367.45 nm (in NC=O); 367 nm (in O). Also, the absorption maximum (in OCC(F)(F)F) amounted to 366.1 nm.

Consider `CC1(C)c2ccccc2N(c2ccccc2)c2ccc(-c3ccc(C(=O)c4ccc(-c5ccc6c(c5)C(C)(C)c5ccccc5N6c5ccccc5)cc4)cc3)cc21`, for which the absorption maximum (in Cc1ccccc1) was 377.59 nm.

`COc1ccc(C2=C(c3ccccc3)C(c3ccccc3)=[N+]3C2=Nc2c(-c4ccc(OC)cc4)c(-c4ccccc4)c(-c4ccccc4)n2[B-]3(F)F)cc1`: the absorption maximum (in Cc1ccccc1) came to 656 nm.

The compound `CCCC1(CCC)c2cc(C#N)ccc2-c2ccc(C#N)cc21` returned an absorption maximum (in C1CCCCC1) of 319 nm.

Turning to `CCCCCCCCCCCCn1cccc1/C=C/c1cc(OCCCC)c(/C=C/c2cccn2CCCCCCCCCCCC)cc1OCCCC`, the absorption maximum (in Cc1ccccc1) was determined as 411 nm.

`CCOC(=O)c1c2c3c(ccc(Cl)c3c3cc4c(cc13)[Si](C)(C)O[Si]4(C)C)N(C)C2=O` gave an absorption maximum (in CC#N) of 378 nm.

Under “in CC#N”, `c1ccc(-c2nc(-c3ccc(-c4cccs4)s3)[nH]c2-c2ccccc2)cc1` showed an absorption maximum of 365 nm.

`c1ccc(-c2pc3ccccc3s2)cc1` (stereo not given) showed an absorption maximum (in CC#N) of 330 nm.

Turning to `N#Cc1nc2cnc(N)nc2n1Cc1ccccc1`, the absorption maximum came to 331 nm (in C1COCCO1); 330 nm (in CC#N); 333 nm (in CO); 326 nm (in ClCCl); 331 nm (in O).

Where the note is “in C1CCOC1”, `N#Cc1c(N2CCCCC2)cc(-c2ccccc2)c2c1-c1ccccc1C2=O` yielded an absorption maximum of 392 nm.

`Cc1cc(C)c([B-]2(c3c(C)cc(C)cc3C)[O+]=P(c3ccccc3)(c3ccccc3)c3cc(-c4ccc(C(F)(F)F)cc4)sc3-c3sc(-c4ccc(C(F)(F)F)cc4)cc32)c(C)c1` showed an absorption maximum (in C1CCOC1) of 405 nm.

Where the note is “in ClCCl”, `CC(C)(C)c1ccc(C#Cc2nc(C#Cc3ccc(C(C)(C)C)cc3)c(C#Cc3ccc(C(C)(C)C)cc3)c(C#Cc3ccc(C(C)(C)C)cc3)c2C#Cc2ccc(C(C)(C)C)cc2)cc1` registered an absorption maximum of 421 nm.
